According to PMC4853715, “Design, Synthesis and Antitumor Activity of Novel link-bridge and B-Ring Modified Combretastatin A-4 (CA-4) Analogues as Potent Antitubulin Agents” (Scientific Reports, 2016):

Columns and labels:
A549 = test: MTT assay, antiproliferative activity; assay type: cell-based; conditions: Homo sapiens, 48 h, ± SD
Procedure: The in vitro anticancer activities of the prepared compounds against HepG2, Hela, MCF-7, A549, HT-29 and SSC-4 cell lines were evaluated as described in the literature. Target tumor cells were grown to log phase in DMEM medium supplemented with 10% fetal bovine serum. After reaching a dilution of 1 × 10^5 cells Ml^−1 with the medium, 100 μL of the obtained cell suspension was added to each well of 96-well culture plates. Subsequently, incubation was performed at 37 °C in 5% CO2 atmosphere for 12 h before the cytotoxicity assessment. Tested samples at preset concentrations were added to 6 wells with CA-4 being employed as a positive reference. After 48 h exposure period, 25 μL of PBS containing 2.5 mg mL^−1 of MTT (Sigma, USA) was added to each well. After 4 h, the medium was replaced by 150 μL DMSO to dissolve the purple formazan crystals produced. The absorbance at 570 nm of each well was measured with Synergy™ 2 Multi-Mode Microplate Reader. Cell viability (%) was calculated using the following equation: cell viability (%) = (Atreatment/Acontrol) × 100%. The data represented the mean of three independent experiments in triplicate and were expressed as means ± SD.

Bovine brain tubulin = test: Effects on tubulin polymerization (turbidimetric assembly); assay type: biochemical; conditions: 10 μM tubulin, 30 °C, 20 min incubation; read-out: Tubulin inhibition IC50
Procedure: Bovine brain tubulin was purified as described previously. To evaluate the effect of the compounds on tubulin assembly in vitro, compounds of varying concentrations were preincubated with 10 μM tubulin in glutamate buffer at 30 °C and then cooled to 0 °C. After addition of GTP, the mixtures were transferred to 0 °C cuvettes in a recording BioTek Synergy 4 multifunction microplate spectrophotometer and warmed up to 30 °C and the assembly of tubulin was observed turbidimetrically (TU660, USA).

[1] = test system: Bax, PARP, Bcl-2, Caspase3 in A549 cells; test: Western blot of apoptosis-related proteins; assay type: cell-based, human
Procedure: Total cellular proteins are extracted with lysis buffer (50 mmol/l Tris [pH 7.4], 150 mmol/l NaCl, 1% Triton X-100, 1% deoxycholicphenyl methylsulfonyl fluoride, 1 mg/ml aprotinin, 5.0 mmol/l sodium pyrophosphate, […] leupeptin, 0.1 mmol/l phenylmethylsulfonyl fluoride, and 1 mmol/l DTT). Protease inhibitors are added immediately before use. The cells are harvested at the end of treatment and extracted for western blot analysis as described previously. After washing twice with PBS, the cultured cells were collected and lysed in lysis buffer (100 mmol/l Tris-Cl, pH 6.8, 4% (m/v) SDS, 20% (v/v) glycerol, 200 mmol/l β-mercaptoethanol, 1 mmol/l phenylmethylsulfonyl fluoride, and […] aprotinin). The lysates were centrifuged at 13,000 × g for 15 min at 4 °C. The concentration of total proteins was measured using the BCA assay method with Varioskan spectrofluorometer and spectrophotometer (Thermo) at 562 nm. Protein samples were separated with 15% SDS-PAGE and transferred onto the polyvinyldifluoride (PVDF) membranes (Millipore, IPVH 304 F0). Immune complexes were formed by incubation of proteins with primary antibodies overnight at 4 °C followed by IRDye^TM 800 conjugated second antibody for 1 hour at 37 °C. Immunoreactive protein bands were detected with an Odyssey Scanning System (LI-COR Biosciences, 9201-03). Antibodies: primary antibodies of cyclin B1, Cdc2, p-Cdc2 (Thr14/Tyr15), Cdc25C, and p21WAF1/Cip1 were all obtained from EPITOMICS (Abcam, Cambridge, UK); antibodies of Bax and Bcl-2 were obtained from Bioworld (Bioworld Technology, Inc., MN, USA); antibodies of caspase-3, and PARP were all obtained from Santa Cruz (Santa Cruz, CA); and antibody of GAPDH was from Boster (Wuhan, China). The secondary antibodies peroxidase-conjugated affinipure Goat Anti-Mouse IgG (H + L) (111-035-003), peroxidase-conjugated affinipure Goat Anti-Rabbit IgG (H + L) (111-035-003) were obtained from Jackson Immuno Research Laboratories, Inc. (USA).

[2] = Body weight of treated xenograft mice; assay type: in vivo, BALB/c nude mice; conditions: whole treatment period
Procedure: Male BALB/c nude mice, five weeks old and weighing 18–22 g, were supplied by Shanghai Laboratory Animal Limited Company. The mice were raised in air-conditioned rooms under controlled lighting (12 h light-dark cycle at 24 °C) and were fed with standard laboratory food and water ad libitum. Before injection into the mice, the A549 cells were harvested by trypsinization and washed three times with cold serum-free medium and then injected in a total volume of 0.1 mL using a 1 mL latex-free syringe (BD) within 30 min of harvest. Mice were inoculated subcutaneously with A549 cells (5.0 × 10^6) on their shoulders. […] The control group received 0.9% normal saline. Tumor size was measured once every 2 days in two per-pendicular dimensions with Vernier calipers and converted to tumor volume (TV) using the formula: (ab^2)/2, where a and b refer to the longer and shorter dimensions, respectively. The body weight of the animals was measured twice a week to assess toxicity of the treatments at the same time as the tumor dimension measurement and the mortality was monitored daily. After the treatments for eight weeks, the animals were euthanized by cervical dislocation. This study conformed to the Guide for the Care and Use of Laboratory Animals as published by the US National Institutes of Health and was approved by the Institutional Ethics Review Board of Nanjing University.

[3] = test system: interphase microtubules of A549 cells; test: Confocal microscopy assay of microtubule morphology; assay type: cell-based, human; conditions: A549, 1.0 μM, 48 h
Procedure: After incubating for 48 h, A549 cells were washed with PBS for three times and fixed with 4% paraformaldehyde for 20 min, permeabilized with cold methanol for another 10 min. After that, the cells were blocked with 5% BSA for 1 h. Subsequently, the cells were washed with PBS, and incubated with anti-tubulin antibody in 3% BSA (1:200 Cytoskeleton, Inc.) overnight at 4 °C. After being washed with PBS for three times, each cover slip was added 200 μL of Cy3-labeled goat anti-mouse IgG (H + L) in 3% BSA (1:500, Cytoskeleton, Inc.) and incubated for 1 h at room temperature. At last, A549 cells was stained with 200 μL of DAPI for 5 min and observed under an confocal microscope (Olympus, USA).

[4] = test system: Tubulin isolated from porcine brain tissue; test: Tubulin polymerization assay (kit, absorbance 340 nm); assay type: biochemical; conditions: 37 °C
Procedure: Tubulin polymerization was determined with the tubulin polymerization assay kit (Cytoskeleton, Denver, CO which was purchased from Cytoskeleton, Beyotime, China. Tubulin isolated from porcine brain tissue was used in this commercial kit.) It is based on the principal that light is scattered by microtubules to an extent that is proportional to the concentration of the microtubule polymer. Compounds that interact with tubulin will alter the polymerization of tubulin, and this can be detected using a spectrophotometer. Tubulin polymerization dynamics was monitored through measuring the change of absorbance at 340 nm every 2 min for 30 min at 37 °C on a spectrophotometer (Perkin-Elmer).

[5] = test system: 293T, Macrophage, and L02; test: MTT assay on non-cancer cell lines; assay type: cell-based, human

SMILES: COc1cc(/C=N/NC(=O)c2cn(Cc3ccccc3)c3ccccc23)cc(OC)c1OC [Compound 7]
- IC50 (A549): 80 ± 10 nM
- IC50 (Bovine brain tubulin): 4460 nM
- level of Bax ([1]; A549, 0.5, 1 and 2 μM, 48 h): efficiently up-regulated
- level of anti-apoptotic proteins (Bcl-2, Bcl-xl) ([1]; A549, 0.5, 1 and 2 μM, 48 h): down-regulated
- cleaved caspase-3 and PARP ([1]; A549, 48 h): up regulation
- body weight changes during treatment [2]: no significant weight changes
- microtubule morphology [3]: disorganized interphase microtubules
- tubulin polymerization (in words) ([4]; 1.0 μM): slightly inhibiting
- tubulin polymerization (in words) ([4]; 5.0 μM): nearly completely blocked
- cytotoxic effects on three normal human cells (in words) [5]: minimal
